{"source": "PubChem BioAssay AID1963432", "about": "(Molecular Pharmacology Branch, DTP, NCI, 2024)", "system": "SYO-1 complex spheroid growth, percent test/control", "test": "Anticancer human tumor SYO-1 cell line growth inhibition [Asc];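 also: compound exposure lasted 7 days after spheroids grew 3 days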;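 as to viability, T/C: 100% = DMSO vehicle control viability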", "conditions": "for viability, T/C: stronger effect = lower value", "how_it_was_run": "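Spheroid model: tumor line + HUVEC + hMSC. Single agents and combinations; top conc. at/near clinical Cmax (10 microM if undetermined), half-log dilutions. DMSO stocks at 800-fold test concentration.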", "key": {"[1]": {"conditions": "curve of first compound, second compound 0.0316 µM"}, "[2]": {"conditions": "curve of first compound, second compound 0.1 µM"}, "[3]": {"conditions": "curve of first compound, second compound 0.316 µM"}, "[4]": {"conditions": "curve of first compound, second compound 1 µM"}, "[5]": {"conditions": "second compound 0.0316 µM, first compound 0.0316 µM"}, "[6]": {"conditions": "second compound 0.0316 µM, first compound 0.1 µM"}, "[7]": {"conditions": "second compound 0.1 µM, first compound 0.0316 µM"}, "[8]": {"conditions": "second compound 0.1 µM, first compound 0.1 µM"}, "[9]": {"conditions": "second compound 0.316 µM, first compound 0.0316 µM"}, "[10]": {"conditions": "second compound 0.316 µM, first compound 0.1 µM"}, "[11]": {"conditions": "second compound 1 µM, first compound 0.0316 µM"}, "[12]": {"conditions": "second compound 1 µM, first compound 0.1 µM"}}, "note": "Values joined by “and” are separate entries in the source; they are usually repeats but may differ in a detail not shown here. Equal values may be shown once."}
{"smiles": "NC1CCC(NC2CC2c2ccccc2)CC1", "note": "(centres undefined) + Cc1c(S(C)(=O)=O)c(-c2cc(F)cc(N3CCN(c4ccc(NS(=O)(=O)c5ccc(NC(CCN6CCC(C(=O)OCCCP(=O)(O)O)CC6)CSc6ccccc6)c(S(=O)(=O)C(F)(F)F)c5)cc4)CC3)c2)c(-c2ccc(Cl)cc2)n1C(C)C", "values": [{"measurement": "IC50", "setting": "[1]", "value": "> 100", "unit": "nM"}, {"measurement": "IC50", "setting": "[2]", "value": "> 100", "unit": "nM"}, {"measurement": "IC50", "setting": "[3]", "value": "> 100", "unit": "nM"}, {"measurement": "IC50", "setting": "[4]", "value": "> 100", "unit": "nM"}, {"measurement": "IC50", "setting": "curve of first compound, second compound 3.16 µM", "value": "> 100", "unit": "nM"}, {"measurement": "IC50", "setting": "curve of first compound, second compound 10 µM", "value": "> 100", "unit": "nM"}, {"measurement": "viability, T/C", "setting": "second compound 0.0316 µM, first compound 0.000316 µM", "value": 100, "unit": "%"}, {"measurement": "viability, T/C", "setting": "second compound 0.0316 µM, first compound 0.001 µM", "value": 92.1, "unit": "%"}, {"measurement": "viability, T/C", "setting": "second compound 0.0316 µM, first compound 0.00316 µM", "value": 90.5, "unit": "%"}, {"measurement": "viability, T/C", "setting": "second compound 0.0316 µM, first compound 0.01 µM", "value": 84.8, "unit": "%"}, {"measurement": "viability, T/C", "setting": "[5]", "value": 86.9, "unit": "%"}, {"measurement": "viability, T/C", "setting": "[6]", "value": 89, "unit": "%"}, {"measurement": "viability, T/C", "setting": "second compound 0.1 µM, first compound 0.000316 µM", "value": 96.5, "unit": "%"}, {"measurement": "viability, T/C", "setting": "second compound 0.1 µM, first compound 0.001 µM", "value": 92.7, "unit": "%"}, {"measurement": "viability, T/C", "setting": "second compound 0.1 µM, first compound 0.00316 µM", "value": 86.3, "unit": "%"}, {"measurement": "viability, T/C", "setting": "second compound 0.1 µM, first compound 0.01 µM", "value": 87.1, "unit": "%"}, {"measurement": "viability, T/C", "setting": "[7]", "value": 91.8, "unit": "%"}, {"measurement": "viability, T/C", "setting": "[8]", "value": 86.5, "unit": "%"}, {"measurement": "viability, T/C", "setting": "second compound 0.316 µM, first compound 0.000316 µM", "value": 105, "unit": "%"}, {"measurement": "viability, T/C", "setting": "second compound 0.316 µM, first compound 0.001 µM", "value": 91.8, "unit": "%"}, {"measurement": "viability, T/C", "setting": "second compound 0.316 µM, first compound 0.00316 µM", "value": 87.9, "unit": "%"}, {"measurement": "viability, T/C", "setting": "second compound 0.316 µM, first compound 0.01 µM", "value": 91.7, "unit": "%"}, {"measurement": "viability, T/C", "setting": "[9]", "value": 89.1, "unit": "%"}, {"measurement": "viability, T/C", "setting": "[10]", "value": 86.9, "unit": "%"}, {"measurement": "viability, T/C", "setting": "second compound 1 µM, first compound 0.000316 µM", "value": 92.2, "unit": "%"}, {"measurement": "viability, T/C", "setting": "second compound 1 µM, first compound 0.001 µM", "value": 88.5, "unit": "%"}, {"measurement": "viability, T/C", "setting": "second compound 1 µM, first compound 0.00316 µM", "value": 96.9, "unit": "%"}, {"measurement": "viability, T/C", "setting": "second compound 1 µM, first compound 0.01 µM", "value": 92.3, "unit": "%"}, {"measurement": "viability, T/C", "setting": "[11]", "value": 90.6, "unit": "%"}, {"measurement": "viability, T/C", "setting": "[12]", "value": 85.8, "unit": "%"}, {"measurement": "viability, T/C", "setting": "second compound 3.16 µM, first compound 0.000316 µM", "value": 91.3, "unit": "%"}, {"measurement": "viability, T/C", "setting": "second compound 3.16 µM, first compound 0.001 µM", "value": 85.3, "unit": "%"}, {"measurement": "viability, T/C", "setting": "second compound 3.16 µM, first compound 0.00316 µM", "value": 88.7, "unit": "%"}, {"measurement": "viability, T/C", "setting": "second compound 3.16 µM, first compound 0.01 µM", "value": 85.8, "unit": "%"}, {"measurement": "viability, T/C", "setting": "second compound 3.16 µM, first compound 0.0316 µM", "value": 79.8, "unit": "%"}, {"measurement": "viability, T/C", "setting": "second compound 3.16 µM, first compound 0.1 µM", "value": 87.2, "unit": "%"}, {"measurement": "viability, T/C", "setting": "second compound 10 µM, first compound 0.000316 µM", "value": 85.7, "unit": "%"}, {"measurement": "viability, T/C", "setting": "second compound 10 µM, first compound 0.001 µM", "value": 85.4, "unit": "%"}, {"measurement": "viability, T/C", "setting": "second compound 10 µM, first compound 0.00316 µM", "value": 80.5, "unit": "%"}, {"measurement": "viability, T/C", "setting": "second compound 10 µM, first compound 0.01 µM", "value": 82.4, "unit": "%"}, {"measurement": "viability, T/C", "setting": "second compound 10 µM, first compound 0.0316 µM", "value": 83.3, "unit": "%"}, {"measurement": "viability, T/C", "setting": "second compound 10 µM, first compound 0.1 µM", "value": 79.7, "unit": "%"}]}
{"smiles": "NC(=O)C(=Cn1cnc(-c2cc(C(F)(F)F)cc(C(F)(F)F)c2)n1)c1cncnc1", "values": [{"measurement": "viability, T/C", "setting": "compound 0.000949 µM", "value": "97.3% and 93.8% and 106%"}, {"measurement": "viability, T/C", "setting": "compound 0.003 µM", "value": "98.8% and 101% and 104%"}, {"measurement": "viability, T/C", "setting": "compound 0.00949 µM", "value": "97.4% and 98% and 95.6%"}, {"measurement": "viability, T/C", "setting": "compound 0.03 µM", "value": "96.9% and 95.8% and 107%"}, {"measurement": "viability, T/C", "setting": "compound 0.0949 µM", "value": "95.9% and 94.2% and 99.5%"}, {"measurement": "viability, T/C", "setting": "compound 0.3 µM", "value": "13.3% and 16.5% and 42.3%"}, {"measurement": "IC50", "setting": "curve of compound", "value": "180 nM and 183 nM and 257 nM"}]}
{"smiles": "O=C(c1cc(Cc2n[nH]c(=O)c3ccccc23)ccc1F)N1CCN(C(=O)C2CC2)CC1", "note": "+ CNC(C)C(=O)NC1CN(S(=O)(=O)c2cccc(S(=O)(=O)N3CCC4CCC(C(=O)NC(c5ccccc5)c5ccccc5)N4C(=O)C(NC(=O)C(C)NC)C3)c2)CCC2CCC(C(=O)NC(c3ccccc3)c3ccccc3)N2C1=O", "values": [{"measurement": "IC50", "setting": "curve of first compound, second compound 0.01 µM", "value": 4730, "unit": "nM"}, {"measurement": "IC50", "setting": "[1]", "value": 4470, "unit": "nM"}, {"measurement": "IC50", "setting": "[2]", "value": 4370, "unit": "nM"}, {"measurement": "IC50", "setting": "[3]", "value": 4260, "unit": "nM"}, {"measurement": "IC50", "setting": "[4]", "value": 3920, "unit": "nM"}, {"measurement": "viability, T/C", "setting": "second compound 0.01 µM, first compound 0.0316 µM", "value": 99.8, "unit": "%"}, {"measurement": "viability, T/C", "setting": "second compound 0.01 µM, first compound 0.1 µM", "value": 95.9, "unit": "%"}, {"measurement": "viability, T/C", "setting": "second compound 0.01 µM, first compound 0.316 µM", "value": 105, "unit": "%"}, {"measurement": "viability, T/C", "setting": "second compound 0.01 µM, first compound 1 µM", "value": 94.6, "unit": "%"}, {"measurement": "viability, T/C", "setting": "second compound 0.01 µM, first compound 3.16 µM", "value": 71.9, "unit": "%"}, {"measurement": "viability, T/C", "setting": "second compound 0.01 µM, first compound 10 µM", "value": 9.58, "unit": "%"}, {"measurement": "viability, T/C", "setting": "[5]", "value": 104, "unit": "%"}, {"measurement": "viability, T/C", "setting": "[6]", "value": 96.8, "unit": "%"}, {"measurement": "viability, T/C", "setting": "second compound 0.0316 µM, first compound 0.316 µM", "value": 94.2, "unit": "%"}, {"measurement": "viability, T/C", "setting": "second compound 0.0316 µM, first compound 1 µM", "value": 93.6, "unit": "%"}, {"measurement": "viability, T/C", "setting": "second compound 0.0316 µM, first compound 3.16 µM", "value": 67.5, "unit": "%"}, {"measurement": "viability, T/C", "setting": "second compound 0.0316 µM, first compound 10 µM", "value": 8.65, "unit": "%"}, {"measurement": "viability, T/C", "setting": "[7]", "value": 105, "unit": "%"}, {"measurement": "viability, T/C", "setting": "[8]", "value": 95.4, "unit": "%"}, {"measurement": "viability, T/C", "setting": "second compound 0.1 µM, first compound 0.316 µM", "value": 103, "unit": "%"}, {"measurement": "viability, T/C", "setting": "second compound 0.1 µM, first compound 1 µM", "value": 93.5, "unit": "%"}, {"measurement": "viability, T/C", "setting": "second compound 0.1 µM, first compound 3.16 µM", "value": 66.3, "unit": "%"}, {"measurement": "viability, T/C", "setting": "second compound 0.1 µM, first compound 10 µM", "value": 8.36, "unit": "%"}, {"measurement": "viability, T/C", "setting": "[9]", "value": 98.6, "unit": "%"}, {"measurement": "viability, T/C", "setting": "[10]", "value": 94.7, "unit": "%"}, {"measurement": "viability, T/C", "setting": "second compound 0.316 µM, first compound 0.316 µM", "value": 99.8, "unit": "%"}, {"measurement": "viability, T/C", "setting": "second compound 0.316 µM, first compound 1 µM", "value": 96.4, "unit": "%"}, {"measurement": "viability, T/C", "setting": "second compound 0.316 µM, first compound 3.16 µM", "value": 65.8, "unit": "%"}, {"measurement": "viability, T/C", "setting": "second compound 0.316 µM, first compound 10 µM", "value": 5.64, "unit": "%"}, {"measurement": "viability, T/C", "setting": "[11]", "value": 97.4, "unit": "%"}, {"measurement": "viability, T/C", "setting": "[12]", "value": 102, "unit": "%"}, {"measurement": "viability, T/C", "setting": "second compound 1 µM, first compound 0.316 µM", "value": 90.3, "unit": "%"}, {"measurement": "viability, T/C", "setting": "second compound 1 µM, first compound 1 µM", "value": 91.7, "unit": "%"}, {"measurement": "viability, T/C", "setting": "second compound 1 µM, first compound 3.16 µM", "value": 59.9, "unit": "%"}, {"measurement": "viability, T/C", "setting": "second compound 1 µM, first compound 10 µM", "value": 5.84, "unit": "%"}]}
